# Assay results taken from ChEMBL document CHEMBL6092203, “Discovery of Novel PROTAC-Based HPK1 Degraders with High Potency and Selectivity for Cancer Immunotherapy” (J Med Chem, 2024).
# Calls of active or inactive are those of the source. The calls are words filed in the database; no cut-off is given here.
# Key:
# [1] = In vivo induction of HPK1 degradation in C57BL/6J mouse spleen at 0.5 mg/kg administered as single dose and measured after 8 to 24 hrs; format: functional; conditions: time 8-24 hrs
# in vitro [2] = conditions: human, hepatocytes
# [3] = Plasma protein binding in rat at 10 uM incubated for 6 hrs by equilibrium dialysis based LC-MS/MS method; format: ADME, cell-free; conditions: read-out: PPB (converted)
# [4] = Tmax in female Sprague-Dawley rat at 30 mg/kg/day, po measured at day 14; format: ADME, organism-based; conditions: in vivo, time 14 day
# [5] = Metabolic stability in human hepatocytes assessed as intrinsic clearance at 1 uM incubated for 90 mins by LC-MS/MS method; format: ADME, cell-based, Hepatocyte; conditions: 1.5 h
# Jurkat [6] = assay: Induction of GCK degradation in human Jurkat cells at 1 to 1000 nM incubated for 24 hrs by Western blotting analysis; format: cell-based; conditions: dose 1-1000 nM
# MC-38 [7] = assay: Synergistic antitumor activity against mouse MC38 cells implanted in C57BL/6J mouse assessed as reduction in tumor weight at 1 mg/kg, po bid administered for 3 to 4 weeks in presence of 5 mg/kg anti-PD1 and measured twice a week (reference value: 1.79 +/- 0.24 g); format: functional; conditions: time 3-4 weeks
# [8] = Toxicity in Sprague-Dawley rat assessed as efficacy dose measured after 14 days; conditions: in vivo, 336 h, time 14 day
# [9] = Apparent permeability across basolateral to apical side in human Caco-2 cells at 10 uM incubated for 2 hrs by LC-MS/MS analysis; format: ADME, cell-based
# [10] = Toxicity in C57BL/6J mouse assessed as body weight loss at 0.1 to 0.5 mg/kg, po bid administered for 3 to 4 weeks; format: organism-based; conditions: in vivo, dose lower 0.1 mg/kg, time lower 3 weeks, dose upper 0.5 mg/kg, time upper 4 weeks
# [11] = AUC(0 to 24 hrs) in male Sprague-Dawley rat at 100 mg/kg/day, po measured at day 1; format: ADME, organism-based; conditions: in vivo, time 1 day
# [12] = biological target: Protein cereblon/Mitogen-activated protein kinase kinase kinase kinase 1 (Homo sapiens, UniProt Q92918+Q96SW2); assay: PROTAC activity at CRBN/HPK1 in human Jurkat cells assessed as HPK1 degradation at 1 uM by Western blotting analysis; format: cell-based; conditions: time 4-72 hrs
# [13] = Half-life in C57BL/6J mouse at 2 mg/kg, iv measured upto 24 hrs by LC-MS analysis; conditions: in vivo
# MC-38 [14] = assay: Antitumor activity against mouse MC38 cells implanted in C57BL/6J mouse assessed as reduction in tumor volume at 0.5 mg/kg, po BID administered for 3 to 4 weeks (reference value: 1549.22 +/- 217.92 mm3); format: functional; conditions: time 3-4 weeks
# [15] = AUCinfinity in Sprague-Dawley rat at 1 mg/kg, po measured upto 24 hrs by LC-MS analysis; format: ADME, organism-based; conditions: in vivo
# [16] = Clearance in rat relative to hepatic blood flow; conditions: in vivo
# in vitro [17] = conditions: mouse, hepatocytes
# in vivo [18] = conditions: female, Sprague-Dawley, rat, po, 2 mg/kg
# MC-38 [19] = assay: Antitumor activity against mouse MC38 cells implanted in C57BL/6J mouse assessed as reduction in tumor weight at 0.5 mg/kg, po BID administered for 3 to 4 weeks (reference value: 1.79 +/- 0.24 g); format: functional; conditions: time 3-4 weeks
# [20] = Metabolic stability in rat hepatocytes assessed as intrinsic clearance at 1 uM incubated for 90 mins by LC-MS/MS method; format: ADME, cell-based, Hepatocyte; conditions: 1.5 h
# in vitro [21] = conditions: mouse, liver microsomes
# [22] = Volume of distribution at steady state in C57BL/6J mouse at 2 mg/kg, iv measured upto 24 hrs by LC-MS analysis; format: ADME, organism-based; conditions: in vivo, read-out: Vdss
# [23] = biological target: Mitogen-activated protein kinase kinase kinase kinase 4 (Homo sapiens) (UniProt O95819); assay: Induction of HGK degradation in human Jurkat cells at 1 to 1000 nM incubated for 24 hrs by Western blotting analysis; format: cell-based; conditions: dose 1-1000 nM
# [24] = AUCinfinity in C57BL/6J mouse at 2 mg/kg, iv measured upto 24 hrs by LC-MS analysis; format: ADME, organism-based; conditions: in vivo
# [25] = AUC(0 to 24 hrs) in female Sprague-Dawley rat at 100 mg/kg/day, po measured at day 1; format: ADME, organism-based; conditions: in vivo, time 1 day
# in vivo [26] = conditions: male, Sprague-Dawley, rat, po, 2 mg/kg
# Jurkat [27] = assay: Effect on p-SLP76 at Y145 residue protein expression in human Jurkat cells at 1 to 2000 nM incubated for 24 hrs by Western blotting analysis; format: functional, cell-based; conditions: dose 1-2000 nM
# [28] = In vivo induction of phosphorylated SLP-76 degradation in C57BL/6J mouse spleen at 0.5 mg/kg administered as single dose and measured after 12 hrs; format: functional
# MC-38 [29] = assay: Synergistic antitumor activity against mouse MC38 cells implanted in C57BL/6J mouse assessed as tumor weight inhibition rate at 0.5 mg/kg, po bid measured after 4 weeks in presence of 5 mg/kg anti-PD1 and measured twice a week; format: functional; set-up: scale not given: the % may be the effect or the level left
# Jurkat [30] = assay: Induction of p-SLP76 at Ser376 protein degradation in human Jurkat cells incubated for 24 hrs by Western blotting analysis relative to control; format: cell-based
# MC-38 [31] = assay: Antitumor activity against mouse MC38 cells implanted in C57BL/6J mouse assessed as reduction in tumor volume at 1 mg/kg, po BID administered for 3 to 4 weeks (reference value: 1549.22 +/- 217.92 mm3); format: functional; conditions: time 3-4 weeks
# [32] = AUC(0 to 24 hrs) in male Sprague-Dawley rat at 2 mg/kg/day, po measured at day 1; format: ADME, organism-based; conditions: in vivo, time 1 day
# [33] = Drug metabolism in mouse hepatocytes assessed as phase 1 metabolites formation at 10 uM incubated for 120 mins by UHPLC-UV/MS/MS method; format: ADME, cell-based, Hepatocyte; conditions: 2 h
# [34] = Clearance in mouse relative to hepatic blood flow; conditions: in vivo
# [35] = Tmax in female Sprague-Dawley rat at 2 mg/kg/day, po measured at day 1; format: ADME, organism-based; conditions: in vivo, time 1 day
# in vivo [36] = conditions: male, Sprague-Dawley, rat, po, 100 mg/kg
# [37] = Toxicity in C57BL/6J mouse assessed as change in body weight at 0.1 to 1 mg/kg, po bid measured after 28 days; format: organism-based; conditions: in vivo, 672 h, dose 0.1-1 mg/kg, time 28 day
# in vivo [38] = conditions: Sprague-Dawley, rat, po, 1 mg/kg
# MC-38 [39] = assay: Antitumor activity against mouse MC38 cells implanted in C57BL/6J mouse assessed as reduction in tumor weight at 0.1 mg/kg, po BID administered for 3 to 4 weeks (reference value: 1.79 +/- 0.24 g); format: functional; conditions: time 3-4 weeks
# [40] = Drug metabolism in rat hepatocytes assessed as phase 1 metabolites formation at 10 uM incubated for 120 mins by UHPLC-UV/MS/MS method; format: ADME, cell-based, Hepatocyte; conditions: 2 h
# [41] = Tmax in female Sprague-Dawley rat at 2 mg/kg/day, po measured at day 14; format: ADME, organism-based; conditions: in vivo, time 14 day
# Mitogen-activated protein kinase kinase kinase kinase 4 (Homo sapiens), sequence (O95819 2-1239 limits assumed): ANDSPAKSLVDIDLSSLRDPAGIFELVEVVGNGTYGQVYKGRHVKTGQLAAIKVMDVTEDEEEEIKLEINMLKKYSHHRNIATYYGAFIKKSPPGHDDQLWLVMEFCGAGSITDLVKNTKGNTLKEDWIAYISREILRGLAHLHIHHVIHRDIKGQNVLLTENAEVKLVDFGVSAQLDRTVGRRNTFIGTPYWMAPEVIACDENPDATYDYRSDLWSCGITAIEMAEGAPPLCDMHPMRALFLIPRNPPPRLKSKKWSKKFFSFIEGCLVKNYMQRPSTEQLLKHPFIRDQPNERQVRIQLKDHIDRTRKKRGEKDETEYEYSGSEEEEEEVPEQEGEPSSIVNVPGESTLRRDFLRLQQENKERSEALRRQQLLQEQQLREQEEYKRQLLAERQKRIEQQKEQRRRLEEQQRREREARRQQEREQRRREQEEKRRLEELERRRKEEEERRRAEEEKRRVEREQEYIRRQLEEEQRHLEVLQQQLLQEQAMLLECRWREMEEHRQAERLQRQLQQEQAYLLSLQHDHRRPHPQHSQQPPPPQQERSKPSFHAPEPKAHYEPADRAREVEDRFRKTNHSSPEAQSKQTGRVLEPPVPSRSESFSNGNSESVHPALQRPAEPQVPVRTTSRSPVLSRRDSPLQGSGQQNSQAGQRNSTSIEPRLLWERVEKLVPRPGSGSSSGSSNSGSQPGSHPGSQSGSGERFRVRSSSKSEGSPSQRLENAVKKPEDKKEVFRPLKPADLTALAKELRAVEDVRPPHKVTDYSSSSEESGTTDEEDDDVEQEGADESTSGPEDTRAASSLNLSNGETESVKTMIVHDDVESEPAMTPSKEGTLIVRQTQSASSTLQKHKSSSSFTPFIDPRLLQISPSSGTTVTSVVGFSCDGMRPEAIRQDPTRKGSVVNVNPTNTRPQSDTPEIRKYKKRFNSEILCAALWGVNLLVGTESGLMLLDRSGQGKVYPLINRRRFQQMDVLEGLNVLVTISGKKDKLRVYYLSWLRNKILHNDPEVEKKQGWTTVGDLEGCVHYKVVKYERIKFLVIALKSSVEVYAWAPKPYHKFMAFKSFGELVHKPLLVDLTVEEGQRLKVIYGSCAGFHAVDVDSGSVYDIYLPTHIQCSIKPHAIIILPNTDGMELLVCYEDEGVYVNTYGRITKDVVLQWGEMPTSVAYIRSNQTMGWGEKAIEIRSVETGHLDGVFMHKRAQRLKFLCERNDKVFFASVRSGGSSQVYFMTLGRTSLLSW
# Protein cereblon/Mitogen-activated protein kinase kinase kinase kinase 1, sequence (Q92918 whole entry, looked up): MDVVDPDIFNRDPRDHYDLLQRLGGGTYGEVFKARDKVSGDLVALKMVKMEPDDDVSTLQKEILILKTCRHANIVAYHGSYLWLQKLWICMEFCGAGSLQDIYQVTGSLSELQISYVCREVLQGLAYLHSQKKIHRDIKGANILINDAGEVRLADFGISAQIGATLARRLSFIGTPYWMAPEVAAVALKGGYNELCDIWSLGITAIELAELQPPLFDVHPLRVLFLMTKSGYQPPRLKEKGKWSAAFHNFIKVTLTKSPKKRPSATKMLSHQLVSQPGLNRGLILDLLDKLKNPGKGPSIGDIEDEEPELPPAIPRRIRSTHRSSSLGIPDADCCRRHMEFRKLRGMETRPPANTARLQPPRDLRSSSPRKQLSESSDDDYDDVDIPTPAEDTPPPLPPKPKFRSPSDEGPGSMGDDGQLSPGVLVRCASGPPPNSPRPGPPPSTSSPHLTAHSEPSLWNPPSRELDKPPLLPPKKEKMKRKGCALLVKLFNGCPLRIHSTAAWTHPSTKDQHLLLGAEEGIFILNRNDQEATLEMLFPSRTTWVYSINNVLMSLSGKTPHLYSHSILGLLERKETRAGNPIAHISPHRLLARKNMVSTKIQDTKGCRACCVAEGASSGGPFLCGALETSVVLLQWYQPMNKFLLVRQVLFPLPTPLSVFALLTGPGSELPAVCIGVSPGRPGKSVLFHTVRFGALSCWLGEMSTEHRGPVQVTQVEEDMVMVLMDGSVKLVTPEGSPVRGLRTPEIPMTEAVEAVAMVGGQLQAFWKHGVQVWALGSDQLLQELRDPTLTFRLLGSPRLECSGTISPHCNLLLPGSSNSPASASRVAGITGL
# Protein cereblon/Mitogen-activated protein kinase kinase kinase kinase 1, sequence (Q96SW2 whole entry, looked up): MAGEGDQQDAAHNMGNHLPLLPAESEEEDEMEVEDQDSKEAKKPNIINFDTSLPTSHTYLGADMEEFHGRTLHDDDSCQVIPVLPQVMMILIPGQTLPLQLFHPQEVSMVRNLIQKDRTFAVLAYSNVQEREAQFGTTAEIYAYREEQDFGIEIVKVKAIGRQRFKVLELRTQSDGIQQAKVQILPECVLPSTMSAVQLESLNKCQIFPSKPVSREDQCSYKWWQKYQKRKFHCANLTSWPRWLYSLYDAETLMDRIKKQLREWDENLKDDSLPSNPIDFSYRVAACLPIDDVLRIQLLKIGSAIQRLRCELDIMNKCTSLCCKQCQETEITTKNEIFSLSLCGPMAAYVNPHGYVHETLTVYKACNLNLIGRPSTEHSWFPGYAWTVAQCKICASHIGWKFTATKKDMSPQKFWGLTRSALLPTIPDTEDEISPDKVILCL
smiles,measurement,setting,value
O=C1CCN(c2cc(C(=O)N3CCC(CC4CCN(c5ccc(-c6cnc7[nH]cc(-c8cnn(CC(F)(F)F)c8)c7n6)cn5)CC4)CC3)ccc2Cl)C(=O)N1,Emax at 0.5 mg/kg,[1],61.3%
same,"half-life at 1.5 h, 1 µM",in vitro [2],6.02 h
same,"fraction unbound at 6 h, 10 µM",[3],0.0008
same,Tmax,[4],8.67 h
same,CLH,[5],1.92 µL/min/mg
same,Activity,Jurkat [6],inactive
same,Activity,MC-38 [7],0.47 g
same,Activity,[8],0.8 mg/kg/day
same,"Papp B→A at 2 h, 10 µM",[9],0.112 ×10⁻⁶ cm/s
same,Activity,[10],Non-toxic
same,AUC(0-t) at 24 h,[11],107000 ng·h/mL
same,Activity,[12],Time-dependent-effect
same,half-life at 24 h,[13],1.17 h
same,Activity,MC-38 [14],752.98 mm3
same,AUC(0-inf),[15],894 ng·h/mL
same,clearance,[16],16.6 mL/min/kg
same,"half-life at 1.5 h, 1 µM",in vitro [17],7.62 h
same,AUC at 336 h,in vivo [18],645 ng·h/mL
same,Activity,MC-38 [19],1.04 g
same,CLH,[20],2.97 µL/min/mg
same,"half-life at 0.75 h, 1 µM",in vitro [21],1.73 h
same,Vd,[22],0.659 L/kg
same,Activity,[23],inactive
same,AUC(0-inf),[24],5560 ng·h/mL
same,AUC(0-t) at 24 h,[25],110000 ng·h/mL
same,Cmax at 24 h,in vivo [26],84 ng/mL
same,Activity,Jurkat [27],inactive
same,Emax at 0.5 mg/kg,[28],77.6%
same,Activity,MC-38 [29],86.54%
same,Emax,Jurkat [30],82.1%
same,Activity,MC-38 [31],1277.79 mm3
same,AUC(0-t) at 24 h,[32],1040 ng·h/mL
same,Drug metabolism,[33],metabolite_detected
same,clearance,[34],27 mL/min/kg
same,Tmax,[35],6 h
same,AUC at 336 h,in vivo [36],151000 ng·h/mL
same,Activity,[37],Non-toxic
same,bioavailability at 24 h,in vivo [38],19.2%
same,Activity,MC-38 [39],1.4 g
same,Drug metabolism,[40],metabolite_detected
same,Tmax,[41],6 h
